Results as given in patent US7390873B2, “Antimicrobial cationic peptides” (University of British Columbia, priority 1995, dated 2008).
Converted amounts (≈) assume the structure as drawn. Like-named read-outs stand apart in the source and are kept apart here. Where a SMILES comes first, the peptide text is derived from it. Where no end group is shown, it is not given here. [ ]: non-standard residue; d: D form.

How the values were obtained:
[1] = test system: Candida albicans C627; type: cell-based; conditions: for MIC C. albicans: C627, 24 h
[2] = test system: Pseudomonas aeruginosa K799; type: cell-based; conditions: for MIC P. aeruginosa: K799, 24 h
Experimental: (§1) Any of the art-known methods for measuring antimicrobial activity of peptides can be used in characterizing the peptides of the invention. In these examples, conventional methods were used to determine the minimal inhibitory concentration (MIC) of a peptide in a liquid medium (Amsterdam. Antibiotics in Laboratory Medicine, Williams and Wilkins, Baltimore (1991) 72-78). Briefly, overnight cultures of the test organisms (described below) were diluted to produce an inoculum containing approximately 10^4 to 10^5 organisms. The inoculum size was confirmed by counting the number of organisms on plates that were inoculated at the same time as the liquid cultures.
(§2) The concentration of peptide was measured by assaying for free amino groups using a dinitrophenylation assay, with polymyxin B serving as a standard. Doubling dilutions of peptide were performed (32 μg/ml-0.25 μg/ml) in 100 μl volumes in a 96-well mictrotiter plate, and all wells were subsequently inoculated with the diluted culture of the test organism. After 24 hours of incubation at 37° C., the assay was read. The MIC value is the concentration of peptide at which the growth of the test organism was reduced by 50%. The number of cells in the culture inoculum was calculated from the plate count after incubating the plate for 24 hours at 37° C. The medium used for cell culture and dilution in this assay was Luria broth (LB). Each peptide was tested three times against each organism, and the MIC values presented below are the mean values of the three experiments.

[3] = test system: Staphylococcus aureus RN4220; type: cell-based; conditions: for MIC S. aureus: RN4220, 24 h
Experimental: as §1, §2

[4] = test system: Staphylococcus epidermidis C621; type: cell-based; conditions: for MIC S. epidermidis: C621, 24 h
Experimental: as §1, §2

[5] = test system: E. coli UB1005; type: cell-based; conditions: for MIC E. coli: UB1005, 24 h
Experimental: as §1, §2

[6] = test system: all of the organisms tested; assay: MIC assay, summary over the organisms tested; type: cell-based; conditions: range over organisms
Experimental: as §1
as §2, with “The medium used for cell culture and dilution in this assay was Luria broth (LB). Each peptide was tested three times against each organism, and the MIC values presented below are the mean values of the three experiments.” left out
MIC values also were determined for various derivatives of indolicidin, CP-11, and CP-13. […]

[7] = test system: human red blood cells; assay: Lysis of red blood cells; type: cell-based
Experimental: Freshly collected human blood was mixed with heparin and centrifuged to remove the buffy coat. The resulting erythrocytes were washed three times in 0.85% saline and stored at 4° C. Serial dilutions of the peptides in saline were prepared in round bottomed microtitre plates using 100 μl volumes. Red blood cells were diluted with saline to 1/25 of the packed volume of cells and 50 μl of red blood cells were added to each well. Plates were incubated while rocking at 37° C., and the concentration of peptide required for red blood cell lysis of more than 80% of cells (i.e., visible lysis) was determined at 4 and 24 hours (Table 7).

[8] = Mortality after injection of peptide in mice; type: in vivo; conditions: 200 μg peptide IP
Experimental: The ability of indolicidin and variants to protect against LPS-induced endotoxemia was assessed in vivo. Mice (8-10 weeks old) were injected intraperitoneally (IP) with 20 mg D-galactosamine (Dgal) to sensitive them to LPS according to the model of Galanos (Galanos, C., M. A., Freudenberg and W. Reutter, 1979, Galactosamine sensitization to the lethal effects of endotoxin. Proc. Natl. Acad. Sci. USA 76:5939), followed by 200 μg peptide in 100 μl. Immediately afterwards LPS (10 μg) in 100 μl was injected. The mice were observed 24 hours after injections and survivors noted. […] When Dgal and LPS were also injected, that 200 μg of indolicidin reduced mortality reduced at 24 hours from 100% in controls to 60%.

Compound: CC[C@H](C)[C@H](N)C(=O)N[C@@H](CC(C)C)C(=O)N[C@@H](CCCCN)C(=O)N[C@@H](CCCCN)C(=O)N[C@@H](Cc1c[nH]c2ccccc12)C(=O)N1CCC[C@H]1C(=O)N[C@@H](Cc1c[nH]c2ccccc12)C(=O)N[C@@H](Cc1c[nH]c2ccccc12)C(=O)N1CCC[C@H]1C(=O)N[C@@H](Cc1c[nH]c2ccccc12)C(=O)N[C@@H](CCCNC(=N)N)C(=O)N[C@@H](CCCNC(=N)N)C(=O)N[C@@H](CCCCN)C(=O)OC [CP-11C] (H-ILKKWPWWPWRRK-OMe)
- MIC C. albicans [1]: 8 µg/mL (≈ 4.22 µM)
- MIC P. aeruginosa [2]: 8 µg/mL (≈ 4.22 µM)
- MIC S. aureus [3]: 8 µg/mL (≈ 4.22 µM)
- MIC S. epidermidis [4]: 1 µg/mL (≈ 0.528 µM)
- MIC E. coli [5]: 2 µg/mL (≈ 1.06 µM)
- MIC values for all of the organisms tested [6]: 1 to 8 µg/mL
- Lowest concentration causing lysis, 4 hours [7]: >128 µg/mL
- Lowest concentration causing lysis, 24 hours [7]: 64 µg/mL

Compound: CC[C@@H](C)[C@@H](N)C(=O)N[C@@H](CC(C)C)C(=O)N[C@@H](CCCCN)C(=O)N[C@@H](CCCCN)C(=O)N[C@@H](Cc1c[nH]c2ccccc12)C(=O)N1CCC[C@H]1C(=O)N[C@@H](Cc1c[nH]c2ccccc12)C(=O)N[C@@H](Cc1c[nH]c2ccccc12)C(=O)N1CCC[C@H]1C(=O)N[C@@H](Cc1c[nH]c2ccccc12)C(=O)N[C@@H](CCCNC(=N)N)C(=O)N[C@@H](CCCNC(=N)N)C(=O)N[C@@H](CCCCN)C(=O)OC [CP-11DC] (H-[dI]LKKWPWWPWRRK-OMe; N-terminus assumed)
- MIC C. albicans [1]: 8 µg/mL (≈ 4.22 µM)
- MIC P. aeruginosa [2]: 4 µg/mL (≈ 2.11 µM)
- MIC S. aureus [3]: 4 µg/mL (≈ 2.11 µM)
- MIC S. epidermidis [4]: 2 µg/mL (≈ 1.06 µM)
- MIC E. coli [5]: 4 µg/mL (≈ 2.11 µM)

Compound: CC[C@@H](C)[C@@H](N)C(=O)N[C@@H](CC(C)C)C(=O)N[C@@H](CCCCN)C(=O)N[C@@H](CCCCN)C(=O)N[C@@H](Cc1c[nH]c2ccccc12)C(=O)N1CCC[C@H]1C(=O)N[C@@H](Cc1c[nH]c2ccccc12)C(=O)N[C@@H](Cc1c[nH]c2ccccc12)C(=O)N1CCC[C@H]1C(=O)N[C@@H](Cc1c[nH]c2ccccc12)C(=O)N[C@@H](CCCNC(=N)N)C(=O)N[C@@H](CCCNC(=N)N)C(=O)N[C@@H](CCCCN)C(=O)O [CP-11D] (H-[dI]LKKWPWWPWRRK-OH)
- MIC C. albicans [1]: 8 µg/mL (≈ 4.25 µM)
- MIC P. aeruginosa [2]: 4 µg/mL (≈ 2.13 µM)
- MIC S. aureus [3]: 4 µg/mL (≈ 2.13 µM)
- MIC S. epidermidis [4]: 2 µg/mL (≈ 1.06 µM)
- MIC E. coli [5]: 4 µg/mL (≈ 2.13 µM)
- Mortality after injection of peptide [8]: did not cause mortality

Compound: CC[C@H](C)[C@H](N)C(=O)N[C@@H](CC(C)C)C(=O)N1CCC[C@H]1C(=O)N[C@@H](Cc1c[nH]c2ccccc12)C(=O)N[C@@H](CCCCN)C(=O)N[C@@H](Cc1c[nH]c2ccccc12)C(=O)N1CCC[C@H]1C(=O)N[C@@H](Cc1c[nH]c2ccccc12)C(=O)N[C@@H](Cc1c[nH]c2ccccc12)C(=O)N1CCC[C@H]1C(=O)N[C@@H](Cc1c[nH]c2ccccc12)C(=O)N[C@@H](CCCNC(=N)N)C(=O)N[C@@H](CCCNC(=N)N)C(=O)OC [Indolicidin-C]
- MIC C. albicans [1]: >32 µg/mL
- MIC P. aeruginosa [2]: >32 µg/mL
- MIC S. aureus [3]: 4 µg/mL (≈ 2.08 µM)
- MIC S. epidermidis [4]: 1 µg/mL (≈ 0.52 µM)
- MIC E. coli [5]: 4 µg/mL (≈ 2.08 µM)
- Lowest concentration causing lysis, 4 hours ([7]; lysis of more than 80% of cells (visible lysis), 37° C., 4 hours): 32 µg/mL
- Lowest concentration causing lysis, 24 hours ([7]; lysis of more than 80% of cells (visible lysis), 37° C., 24 hours): 32 µg/mL

Compound: CC[C@@H](C)[C@@H](N)C(=O)N[C@@H](CC(C)C)C(=O)N1CCC[C@H]1C(=O)N[C@@H](Cc1c[nH]c2ccccc12)C(=O)N[C@@H](CCCCN)C(=O)N[C@@H](Cc1c[nH]c2ccccc12)C(=O)N1CCC[C@H]1C(=O)N[C@@H](Cc1c[nH]c2ccccc12)C(=O)N[C@@H](Cc1c[nH]c2ccccc12)C(=O)N1CCC[C@H]1C(=O)N[C@@H](Cc1c[nH]c2ccccc12)C(=O)N[C@@H](CCCNC(=N)N)C(=O)N[C@@H](CCCNC(=N)N)C(=O)OC [Indolicidin-DC]
- MIC C. albicans [1]: >32 µg/mL
- MIC P. aeruginosa [2]: >32 µg/mL
- MIC S. aureus [3]: 8 µg/mL (≈ 4.16 µM)
- MIC S. epidermidis [4]: 2 µg/mL (≈ 1.04 µM)
- MIC E. coli [5]: 4 µg/mL (≈ 2.08 µM)

Compound: CC[C@@H](C)[C@@H](N)C(=O)N[C@@H](CC(C)C)C(=O)N1CCC[C@H]1C(=O)N[C@@H](Cc1c[nH]c2ccccc12)C(=O)N[C@@H](CCCCN)C(=O)N[C@@H](Cc1c[nH]c2ccccc12)C(=O)N1CCC[C@H]1C(=O)N[C@@H](Cc1c[nH]c2ccccc12)C(=O)N[C@@H](Cc1c[nH]c2ccccc12)C(=O)N1CCC[C@H]1C(=O)N[C@@H](Cc1c[nH]c2ccccc12)C(=O)N[C@@H](CCCNC(=N)N)C(=O)N[C@@H](CCCNC(=N)N)C(=O)O [Indolicidin-D]
- MIC C. albicans [1]: >32 µg/mL
- MIC P. aeruginosa [2]: >32 µg/mL
- MIC S. aureus [3]: 4 µg/mL (≈ 2.1 µM)
- MIC S. epidermidis [4]: 2 µg/mL (≈ 1.05 µM)
- MIC E. coli [5]: 8 µg/mL (≈ 4.19 µM)
- Mortality after injection of peptide [8]: did not cause mortality

Compound: CC[C@H](C)[C@H](N)C(=O)N[C@@H](CC(C)C)C(=O)N1CCC[C@H]1C(=O)N[C@@H](Cc1c[nH]c2ccccc12)C(=O)N[C@@H](CCCCN)C(=O)N[C@@H](Cc1c[nH]c2ccccc12)C(=O)N1CCC[C@H]1C(=O)N[C@@H](Cc1c[nH]c2ccccc12)C(=O)N[C@@H](Cc1c[nH]c2ccccc12)C(=O)N1CCC[C@H]1C(=O)N[C@@H](Cc1c[nH]c2ccccc12)C(=O)N[C@@H](CCCNC(=N)N)C(=O)N[C@@H](CCCNC(=N)N)C(=O)O [Indolicidin-R, reference compound]
- MIC C. albicans C627 [1]: >32 µg/mL
- MIC P. aeruginosa K799 [2]: >32 µg/mL
- MIC S. aureus RN4220 [3]: 16 µg/mL (≈ 8.39 µM)
- MIC S. epidermidis C621 [4]: 16 µg/mL (≈ 8.39 µM)
- MIC E.coli UB1005 [5]: 32 µg/mL (≈ 16.8 µM)

Compound: FFKKFPFFPFRRK [CP-24]
- MIC P. aeruginosa [2]: 32 µg/mL
- MIC S. aureus [3]: 8 µg/mL
- MIC E. coli [5]: 8 µg/mL

Compound: ILKKWPWWPWKWKK [CP-13]
- MIC C. albicans [1]: >32 µg/mL
- MIC P. aeruginosa [2]: >32 µg/mL
- MIC S. aureus [3]: >32 µg/mL
- MIC S. epidermidis [4]: 4 µg/mL
- MIC E. coli [5]: 8 µg/mL
- Lowest concentration causing lysis, 4 hours [7]: >128 µg/mL
- Lowest concentration causing lysis, 24 hours [7]: 128 µg/mL

Compound: ILKKWPWWPWRRK-NH2 [CP-11N]
- MIC S. aureus [3]: >32 µg/mL
- MIC S. epidermidis [4]: 8 µg/mL
- MIC E. coli [5]: 1 µg/mL

Compound: ILPWKKWPWWRWRR [CP-3R]
- MIC C. albicans C627 [1]: > 32 µg/mL
- Partial killing observed in dilutions down to ([1]; purified recombinant peptide, C. albicans C627): 8 µg/mL
- MIC P. aeruginosa K799 [2]: 8 µg/mL
- MIC S. aureus RN4220 [3]: 8 µg/mL
- MIC S. epidermidis C621 [4]: 4 µg/mL
- MIC E.coli UB1005 [5]: 8 µg/mL

Compound: ILPWKWPWYVRR [CP-IA]
- MIC C. albicans [1]: >32 µg/mL
- MIC P. aeruginosa [2]: >32 µg/mL
- MIC S. aureus [3]: >32 µg/mL
- MIC S. epidermidis [4]: >32 µg/mL
- MIC E. coli [5]: >32 µg/mL
